Structures are written as SMILES.

Chain of SOS1-KRas (G12C) (Q07889 564-1049, stated change not applied): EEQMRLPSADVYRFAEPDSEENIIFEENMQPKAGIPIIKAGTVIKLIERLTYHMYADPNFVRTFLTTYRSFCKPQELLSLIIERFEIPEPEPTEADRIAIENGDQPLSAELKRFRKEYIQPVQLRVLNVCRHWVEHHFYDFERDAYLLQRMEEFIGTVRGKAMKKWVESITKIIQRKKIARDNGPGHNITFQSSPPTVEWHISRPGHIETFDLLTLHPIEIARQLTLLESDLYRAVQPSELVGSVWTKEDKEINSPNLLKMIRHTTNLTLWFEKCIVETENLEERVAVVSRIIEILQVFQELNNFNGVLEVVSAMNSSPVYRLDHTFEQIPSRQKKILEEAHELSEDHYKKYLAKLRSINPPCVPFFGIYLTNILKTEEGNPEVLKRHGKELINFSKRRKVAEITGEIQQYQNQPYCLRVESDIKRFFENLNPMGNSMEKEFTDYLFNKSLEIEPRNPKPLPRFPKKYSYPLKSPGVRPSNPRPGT

One experiment addresses SOS1-KRas (G12C) (Homo sapiens (Human), UniProt Q07889). Nature of the experiment: SOS1-KRas (G12C) FRET Assay. The format is binding.
Conditions: not given
For the molecule `C[C@@H](NC(=O)c1cc(N2CCOCC2)c(F)cc1N[C@@H]1CN2CCC1CC2)c1cccc(C(F)F)c1F` [Example 16, N—((R)-1-(3-(difluoromethyl)-2-fluorophenyl)ethyl)-4-fluoro-5-morpholino-2-(((S)-quinuclidin-3-yl)amino)benzamide], the IC50 was determined as 41.6 nM.
Still for that read-out and setting: as for `C[C@@H](NC(=O)c1cc(N2CCOCC2)c(F)cc1N[C@H]1CN2CCC1CC2)c1cccc(C(F)F)c1F` [Example 15, N—((R)-1-(3-(difluoromethyl)-2-fluorophenyl)ethyl)-4-fluoro-5-morpholino-2-(((R)-quinuclidin-3-yl)amino)benzamide], the figure is 12.9 nM; as for `C[C@@H](NC(=O)c1cc(N2CCOCC2)c(F)cc1NC12CC(N(C)C)(C1)C2)c1cccc(C(F)F)c1F` [Example 53, (R)—N-(1-(3-(difluoromethyl)-2-fluorophenyl)ethyl)-2-((3-(dimethylamino)bicyclo[1.1.1]pentan-1-yl)amino)-4-fluoro-5-morpholinobenzamide], 77.3 nM.
Same read-out and setting: as for `C[C@@H](NC(=O)c1cc(N2CC[C@]23CCOC3)c(F)cc1NC1CCN(C)CC1)c1cccc(C(F)F)c1F` (single isomer, unassigned) [Example 35], the figure is 81.5 nM; as for `C[C@@H](NC(=O)c1cc(-c2ccc(=O)n(C)c2)c(F)cc1NC1CCN(C)CC1)c1cccc(C(F)F)c1F` [Example 62, (R)-N-(1-(3-(difluoromethyl)-2-fluorophenyl)ethyl)-4-fluoro-5-(1-methyl-6-oxo-1,6-dihydropyridin-3-yl)-2-((1-methylpiperidin-4-yl)amino)benzamide], 10.5 nM; as for `Cc1c([C@@H](C)NC(=O)c2cc(-c3cnn(C)c3)c(F)cc2NC2CCN(C)CC2)cccc1C(F)(F)F` [Example 11, (R)-4-fluoro-5-(1-methyl-1H-pyrazol-4-yl)-N-(1-(2-methyl-3-(trifluoromethyl)phenyl)ethyl)-2-((1-methylpiperidin-4-yl)amino)benzamide], 149 nM.
Molecule `C[C@@H](NC(=O)c1cc(N2CCN(C)CC2)c(F)cc1NC1CCN(C)CC1)c1cccc(C(F)F)c1F` [Example 5, (R)—N-(1-(3-(difluoromethyl)-2-fluorophenyl)ethyl)-4-fluoro-5-(4-methylpiperazin-1-yl)-2-((1-methylpiperidin-4-yl)amino)benzamide] showed an IC50 of 24.3 nM.

The experiment is the same for the next values; noted with them: inhibition of SOS1:KRAS interaction; 0.5 nM His10-SOS1 (res. 564-1049), 2.5 nM GST-KRAS (res. 1-169, G12C); 2 hrs at RT.
Molecule `C[C@@H](NC(=O)c1cc(N2CC[C@]3(CCOC3)C2)c(F)cc1NC1CCN(C)CC1)c1cccc(C(F)F)c1F` (single isomer, unassigned) [Example 31] gave an IC50 of 40.4 nM.
Still for that read-out and setting: as for `C[C@@H](NC(=O)c1cc(N2CC3CCCC(C2)O3)c(F)cc1NC1CCN(C)CC1)c1cccc(C(F)F)c1F` [Example 41, 5-(9-oxa-3-azabicyclo[3.3.1]nonan-3-yl)-N-((R)-1-(3-(difluoromethyl)-2-fluorophenyl)ethyl)-4-fluoro-2-((1-methylpiperidin-4-yl)amino)benzamide], the figure is 33.3 nM.
The same measure, in the same setting: as for `C[C@@H](NC(=O)c1cc(-c2ccncc2F)c(F)cc1NC1CCN(C)CC1)c1cccc(C(F)F)c1F` [Example 63, (R)-N-(1-(3-(difluoromethyl)-2-fluorophenyl)ethyl)-4-fluoro-5-(3-fluoropyridin-4-yl)-2-((1-methylpiperidin-4-yl)amino)benzamide], the figure is 14.9 nM.
Same read-out and setting: as for `C[C@@H](NC(=O)c1cc(N2CCOCC2)c(F)cc1N[C@@H]1[C@@H]2C[C@H]1CN(C)C2)c1cccc(C(F)F)c1F` [Example 17, N—((R)-1-(3-(difluoromethyl)-2-fluorophenyl)ethyl)-4-fluoro-2-(((1R,5S,6s)-3-methyl-3-azabicyclo[3.1.1]heptan-6-yl)amino)-5-morpholinobenzamide], the figure is 98.9 nM; as for `C[C@@H](NC(=O)c1cc(N2CCOCC2)c(F)cc1NCCN(C)C)c1cccc(C(F)F)c1F` [Example 48, (R)—N-(1-(3-(difluoromethyl)-2-fluorophenyl)ethyl)-2-((2-(dimethylamino)ethyl)amino)-4-fluoro-5-morpholinobenzamide], 63.8 nM; as for `C[C@@H](NC(=O)c1cc(N2CCOCC2)c(F)cc1N[C@H]1[C@@H]2C[C@H]1CN(C)C2)c1cccc(C(F)F)c1F` [Example 18, N—((R)-1-(3-(difluoromethyl)-2-fluorophenyl)ethyl)-4-fluoro-2-(((1R,5S,6r)-3-methyl-3-azabicyclo[3.1.1]heptan-6-yl)amino)-5-morpholinobenzamide], 17.8 nM.
The molecule `COC(=O)c1cc(C(=O)N[C@H](C)c2cccc(C(F)F)c2F)c(NC2CCN(C)CC2)cc1F` [Example 71, methyl (R)-5-((1-(3-(difluoromethyl)-2-fluorophenyl)ethyl)carbamoyl)-2-fluoro-4-((1-methylpiperidin-4-yl)amino)benzoate] yielded an IC50 of 93.6 nM.
In turn, `C[C@@H](NC(=O)c1cc(C(=O)N2CCOCC2)c(F)cc1NC1CCN(C)CC1)c1cccc(C(F)F)c1F` [Example 77, (R)—N-(1-(3-(difluoromethyl)-2-fluorophenyl)ethyl)-4-fluoro-2-((1-methylpiperidin-4-yl)amino)-5-(morpholine-4-carbonyl)benzamide] registered an IC50 of 240 nM.
As to `C[C@@H](NC(=O)c1cc(N2CCOCC2)c(Cl)cc1N[C@@H]1CN2CCC1CC2)c1cccc(C(F)F)c1F` [Example 81, 4-chloro-N—((R)-1-(3-(difluoromethyl)-2-fluorophenyl)ethyl)-5-morpholino-2-(((S)-quinuclidin-3-yl)amino)benzamide], the IC50 is 12.6 nM.
The same measure, in the same setting: under `C[C@@H](NC(=O)c1cc(N2CC[C@@]3(CCOC3)C2)c(F)cc1NC1CCN(C)CC1)c1cccc(C(F)F)c1F` (single isomer, unassigned) [Example 30] stands 39.6 nM.
Still for that read-out and setting: under `C[C@@H](CN(C)C)Nc1cc(F)c(N2CCOCC2)cc1C(=O)N[C@H](C)c1cccc(C(F)F)c1F` (single isomer, unassigned) [Example 50] stands 199 nM; under `C[C@H](CN(C)C)Nc1cc(F)c(N2CCOCC2)cc1C(=O)N[C@H](C)c1cccc(C(F)F)c1F` (single isomer, unassigned) [Example 49], 70.7 nM.
Still for that read-out and setting: as for `Cc1c(C#N)cccc1[C@@H](C)NC(=O)c1cc(N2CCOCC2)c(F)cc1NC1CCN(C)CC1` [Example 46, (R)—N-(1-(3-cyano-2-methylphenyl)ethyl)-4-fluoro-2-((1-methylpiperidin-4-yl)amino)-5-morpholinobenzamide], the figure is 74.6 nM; as for `C[C@@H](NC(=O)c1cc(N2CCC(F)(F)C2)c(F)cc1N[C@H]1CN2CCC1CC2)c1cccc(C(F)F)c1F` [Example 27, N—((R)-1-(3-(difluoromethyl)-2-fluorophenyl)ethyl)-5-(3,3-difluoropyrrolidin-1-yl)-4-fluoro-2-(((R)-quinuclidin-3-yl)amino)benzamide], 22.5 nM.
Regarding `C[C@@H](NC(=O)c1cc(N2CCOCC2)c(F)cc1N[C@H]1CN2CCC1CC2)c1cccc(C(C)(F)F)c1F` [Example 43, N—((R)-1-(3-(1,1-difluoroethyl)-2-fluorophenyl)ethyl)-4-fluoro-5-morpholino-2-(((R)-quinuclidin-3-yl)amino)benzamide], the IC50 worked out at 15.1 nM.
On the same count and under the same terms, as for `Cc1c([C@@H](C)NC(=O)c2cc(N3CCOCC3)c(Cl)cc2NC2CCN(C)CC2)cccc1C(F)(F)F` [Example 13, (R)-4-chloro-N-(1-(2-methyl-3-(trifluoromethyl)phenyl)ethyl)-2-((1-methylpiperidin-4-yl)amino)-5-morpholinobenzamide], the figure is 67.2 nM.
Same read-out and setting: under `C[C@@H](NC(=O)c1cc(N2CC3COCC(C3)C2)c(F)cc1NC1CCN(C)CC1)c1cccc(C(F)F)c1F` [Example 38, 5-(3-oxa-7-azabicyclo[3.3.1]nonan-7-yl)-N-((R)-1-(3-(difluoromethyl)-2-fluorophenyl)ethyl)-4-fluoro-2-((1-methylpiperidin-4-yl)amino)benzamide] stands 35.7 nM; under `C[C@@H](NC(=O)c1cc(N2CCOC(F)(F)C2)c(F)cc1NC1CCN(C)CC1)c1cccc(C(F)F)c1F` [Example 40, (R)-N-(1-(3-(difluoromethyl)-2-fluorophenyl)ethyl)-5-(2,2-difluoromorpholino)-4-fluoro-2-((1-methylpiperidin-4-yl)amino)benzamide], 21.9 nM.
In turn, `C[C@@H](NC(=O)c1cc(C23CC(C2)C3)c(F)cc1N[C@@H]1CN2CCC1CC2)c1cccc(C(F)F)c1F` [Example 70, 5-(bicyclo[1.1.1]pentan-1-yl)-N—((R)-1-(3-(difluoromethyl)-2-fluorophenyl)ethyl)-4-fluoro-2-(((S)-quinuclidin-3-yl)amino)benzamide] registered an IC50 of 347 nM.
On the same count and under the same terms, under `Cc1c([C@@H](C)NC(=O)c2cc(-c3ccncc3)c(F)cc2NC2CCN(C)CC2)cccc1C(F)(F)F` [Example 56, (R)-4-fluoro-N-(1-(2-methyl-3-(trifluoromethyl)phenyl)ethyl)-2-((1-methylpiperidin-4-yl)amino)-5-(pyridin-4-yl)benzamide] stands 34.8 nM; under `C[C@@H](NC(=O)c1cc(C23CC(C2)C3)c(F)cc1N[C@H]1CN2CCC1CC2)c1cccc(C(F)F)c1F` [Example 69, 5-(bicyclo[1.1.1]pentan-1-yl)-N—((R)-1-(3-(difluoromethyl)-2-fluorophenyl)ethyl)-4-fluoro-2-(((R)-quinuclidin-3-yl)amino)benzamide], 120 nM.
Molecule `Cc1c([C@@H](C)NC(=O)c2cc(N3CCOCC3)c(F)cc2NC2CCN(C)CC2)cccc1C(F)(F)F` [Example 3, (R)-4-fluoro-N-(1-(2-methyl-3-(trifluoromethyl)phenyl)ethyl)-2-((1-methylpiperidin-4-yl)amino)-5-morpholinobenzamide] had an IC50 of 56.9 nM.
Same read-out and setting: under `Cc1c([C@@H](C)NC(=O)c2cc(-c3cnoc3)c(F)cc2NC2CCN(C)CC2)cccc1C(F)(F)F` [Example 61, (R)-4-fluoro-5-(isoxazol-4-yl)-N-(1-(2-methyl-3-(trifluoromethyl)phenyl)ethyl)-2-((1-methylpiperidin-4-yl)amino)benzamide] stands 130 nM.

For orientation: IC50 means the concentration that gives 50% inhibition.

Source of the values: patent US20250368634A1, “PHENYL AMIDE COMPOUNDS AND METHODS OF USE” (SCHRÖDINGER, INC., priority 2022, published 2025).
